Experimental data taken from publication PMC8838521, “Antimicrobial, Cytotoxic and Mutagenic Activity of Gemini QAS Derivatives of 1,4:3,6-Dianhydro-L-iditol” (Molecules, 2022).
Counter-ions that a name gives are not always drawn.

Experiments:
Escherichia coli K12 = details: strain not stated; cited from earlier work
[1] = system: Staphylococcus aureus ATCC 25923; parameters: method as in PMID 23669380; details: strain not stated; cited from earlier work
[2] = system: Candida albicans ATCC 10231; parameters: method as in PMID 16459482; details: strain not stated; cited from earlier work
[3] = system: human keratinocytes (HaCaT cell line); experiment: Cytotoxicity, MTT assay; assay type: cell-based; details: MTT, 24 h incubation
Method: To assess the cytotoxicity of QAS (IC50), the MTT assay on 96-well polystyrene plates was performed for human keratinocytes (HaCaT, Elabscience Biotechnology Inc., Houston, Texas, USA). The assay utilizes colorimetric determination of the cell metabolic activity and the color intensity reflects the number of live cells that can be measured spectrophotometrically. The cell line was cultured in a Dulbecco’s modified Eagle Medium (Invitrogen) supplemented with 10% fetal bovine serum (Sigma Aldrich) (v/v), 100 units/mL of penicillin, 100 μg/mL of streptomycin, and 2 mM L-glutamine and was stored at 37 °C in a humidified 5% CO2 incubator. Briefly, a day after plating of 500 cells per well, a series of concentrations (0.5–200 μg/mL) of the test compounds was applied. DMSO was added to the control cells at a final concentration of 1.0% (v/v), which was related to the maximal concentration of the solvent compounds used in the experiment. After 24 h of incubation with the QAS at 37 °C (humidified 5% CO2 incubator), a medium containing 1 mg/mL of MTT (3-(4,5-dimethylthiazol-2-yl)-2,5-diphenyltetrazolium bromide) was added to the wells up to a final concentration of 0.5 mg/mL. Subsequently, the plates were incubated at 37 °C for 4 h. Then, the medium was removed by suction, and the formazan product was solubilized with DMSO. The background absorbance at 630 nm was subtracted from that at 570 nm for each well (Epoch, BioTek Instruments, Winooski, VT, USA). Six replicates were conducted for each concentration. All experiments were repeated at least twice and the resulting IC50 values were calculated with GraFit 7 software (v. 7.0, Erithacus, Berkley, CA, USA).

| Compound | MIC against E. coli (Escherichia coli K12) [µg/mL] | MIC against S. aureus [1] [µg/mL] | MIC against C. albicans [2] [µg/mL] | HaCaT IC50 [3] [µg/mL] | melting point |
| --- | --- | --- | --- | --- | --- |
| Benzalkonium chloride [BAC] | 13 | 2 | 8 | 1.1 ± 1.4 |  |
| CCCCCC[N+](C)(C)C1COC2C1OCC2[N+](C)(C)CCCCCC (as salt: methanesulfonate) [QAS 8, N,N’-(1,4:3,6-Dianhydro-2,5-dideoxy-L-iditol-2,5-diyl)-bis(N,N-dimethyl-N-hexylammonium) Ditrifluoromethanesulfonate] |  |  |  |  | 222.8 to 224 °C |
| Cn1cc[n+](C2COC3C2OCC3[n+]2ccn(C)c2)c1 (as salt: methanesulfonate) [QAS 6, N,N’-(1,4:3,6-Dianhydro-2,5-dideoxy-L-iditol-2,5-diyl)-bis(N-methylimidazolium) Ditrifluoromethanesulfonate] |  |  |  |  | 90.5 to 93.7 °C |
| CCCCCCCCCC[N+](C)(C)C1COC2C1OCC2[N+](C)(C)CCCCCCCCCC (as salt: methanesulfonate) [QAS 10, N,N’-(1,4:3,6-Dianhydro-2,5-dideoxy-L-iditol-2,5-diyl)-bis(N,N-dimethyl-N-decylammonium) Ditrifluoromethanesulfonate] |  |  |  |  | 191 °C (dec.) |
